Measured values as given in ChEMBL document CHEMBL4507274 (2021).

Assays:
[1] = molecular target: Receptor tyrosine-protein kinase erbB-4 (Homo sapiens) (UniProt Q15303); assay: ErbB4 (h) Upstate kinase activity assay; details: Compound concentration 10.0 uM
[2] = test system: DLD-1; assay: Colon DLD-1 cell line MDS Pharma Services Proliferation Assay; type: functional, cell-based, Homo sapiens
[3] = molecular target: Mitogen-activated protein kinase 14 (Homo sapiens) (UniProt Q16539); assay: SAPK2a (h) Upstate kinase activity assay; details: Compound concentration 10.0 uM
Mitogen-activated protein kinase 14 (Homo sapiens), sequence (Q16539 whole entry): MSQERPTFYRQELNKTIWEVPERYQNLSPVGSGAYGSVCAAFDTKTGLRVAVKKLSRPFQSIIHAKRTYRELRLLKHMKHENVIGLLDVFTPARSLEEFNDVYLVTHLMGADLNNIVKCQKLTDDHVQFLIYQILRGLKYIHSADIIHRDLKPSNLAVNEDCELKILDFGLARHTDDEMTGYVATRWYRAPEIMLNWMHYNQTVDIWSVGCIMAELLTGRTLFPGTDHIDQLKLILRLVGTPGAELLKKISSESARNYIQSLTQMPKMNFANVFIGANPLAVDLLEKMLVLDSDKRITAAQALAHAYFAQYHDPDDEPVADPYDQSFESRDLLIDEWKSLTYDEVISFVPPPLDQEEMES

[4] = molecular target: Insulin-like growth factor 1 receptor (Homo sapiens) (UniProt P08069); assay: IGF-1R (h) Upstate kinase activity assay; details: Compound concentration 10.0 uM
Insulin-like growth factor 1 receptor (Homo sapiens), sequence (P08069 31-736 limits assumed): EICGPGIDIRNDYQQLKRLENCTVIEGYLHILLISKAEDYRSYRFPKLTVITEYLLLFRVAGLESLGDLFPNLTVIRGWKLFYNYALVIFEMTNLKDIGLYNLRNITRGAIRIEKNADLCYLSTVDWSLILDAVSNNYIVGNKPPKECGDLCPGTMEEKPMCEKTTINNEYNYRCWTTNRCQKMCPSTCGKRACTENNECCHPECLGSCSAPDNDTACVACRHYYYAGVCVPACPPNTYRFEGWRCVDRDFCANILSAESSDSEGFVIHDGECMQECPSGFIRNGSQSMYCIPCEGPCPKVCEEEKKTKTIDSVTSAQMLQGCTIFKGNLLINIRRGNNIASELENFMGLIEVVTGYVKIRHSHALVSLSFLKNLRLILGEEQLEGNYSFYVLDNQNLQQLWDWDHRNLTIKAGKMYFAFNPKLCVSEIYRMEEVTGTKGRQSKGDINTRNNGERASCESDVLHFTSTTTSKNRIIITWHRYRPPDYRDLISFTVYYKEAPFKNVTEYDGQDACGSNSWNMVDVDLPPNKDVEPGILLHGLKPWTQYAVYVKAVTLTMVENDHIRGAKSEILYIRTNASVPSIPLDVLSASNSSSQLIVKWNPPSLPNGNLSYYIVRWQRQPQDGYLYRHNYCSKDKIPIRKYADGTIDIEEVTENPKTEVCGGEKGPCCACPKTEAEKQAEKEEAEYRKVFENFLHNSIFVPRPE
Insulin-like growth factor 1 receptor (Homo sapiens), sequence (P08069 741-1367 limits assumed): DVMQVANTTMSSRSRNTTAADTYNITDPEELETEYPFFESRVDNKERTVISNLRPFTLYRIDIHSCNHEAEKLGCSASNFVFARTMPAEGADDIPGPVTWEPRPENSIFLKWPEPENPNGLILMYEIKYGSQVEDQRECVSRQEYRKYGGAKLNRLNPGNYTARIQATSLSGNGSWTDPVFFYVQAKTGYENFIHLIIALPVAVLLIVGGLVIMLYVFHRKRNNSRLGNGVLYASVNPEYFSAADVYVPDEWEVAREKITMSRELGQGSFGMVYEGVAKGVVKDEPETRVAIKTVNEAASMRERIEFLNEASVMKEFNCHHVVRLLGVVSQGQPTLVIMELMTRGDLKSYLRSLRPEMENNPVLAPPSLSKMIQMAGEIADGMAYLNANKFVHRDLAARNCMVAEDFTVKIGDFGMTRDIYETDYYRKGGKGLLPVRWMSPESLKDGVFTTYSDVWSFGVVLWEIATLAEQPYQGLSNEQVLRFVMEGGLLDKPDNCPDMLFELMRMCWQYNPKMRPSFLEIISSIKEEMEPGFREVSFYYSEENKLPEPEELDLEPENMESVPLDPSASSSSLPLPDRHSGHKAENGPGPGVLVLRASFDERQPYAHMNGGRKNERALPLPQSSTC

[5] = molecular target: T1, Dual specificity mitogen-activated protein kinase kinase 6 (Homo sapiens) (UniProt P52564); assay: MKK6 (h) Upstate kinase activity assay; details: Compound concentration 10.0 uM
T1 sequence (whole entry): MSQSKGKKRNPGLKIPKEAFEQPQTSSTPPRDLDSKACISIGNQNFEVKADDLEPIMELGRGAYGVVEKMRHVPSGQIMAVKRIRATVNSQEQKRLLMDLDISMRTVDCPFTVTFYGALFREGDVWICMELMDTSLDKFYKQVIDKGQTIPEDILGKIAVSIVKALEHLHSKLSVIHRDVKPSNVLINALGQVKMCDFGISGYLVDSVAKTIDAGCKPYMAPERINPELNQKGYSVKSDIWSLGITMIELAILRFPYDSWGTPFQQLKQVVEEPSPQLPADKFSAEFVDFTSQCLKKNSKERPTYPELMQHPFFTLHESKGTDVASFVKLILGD

[6] = test system: PC-6; assay: Lung PC-6 cell line MDS Pharma Services Proliferation Assay; type: functional, cell-based, Homo sapiens
[7] = molecular target: Protein kinase C beta type (Homo sapiens) (UniProt P05771); assay: PKCBII(h) Upstate kinase activity assay; details: Compound concentration 10.0 uM
Protein kinase C beta type (Homo sapiens), sequence (P05771 2-671 limits assumed): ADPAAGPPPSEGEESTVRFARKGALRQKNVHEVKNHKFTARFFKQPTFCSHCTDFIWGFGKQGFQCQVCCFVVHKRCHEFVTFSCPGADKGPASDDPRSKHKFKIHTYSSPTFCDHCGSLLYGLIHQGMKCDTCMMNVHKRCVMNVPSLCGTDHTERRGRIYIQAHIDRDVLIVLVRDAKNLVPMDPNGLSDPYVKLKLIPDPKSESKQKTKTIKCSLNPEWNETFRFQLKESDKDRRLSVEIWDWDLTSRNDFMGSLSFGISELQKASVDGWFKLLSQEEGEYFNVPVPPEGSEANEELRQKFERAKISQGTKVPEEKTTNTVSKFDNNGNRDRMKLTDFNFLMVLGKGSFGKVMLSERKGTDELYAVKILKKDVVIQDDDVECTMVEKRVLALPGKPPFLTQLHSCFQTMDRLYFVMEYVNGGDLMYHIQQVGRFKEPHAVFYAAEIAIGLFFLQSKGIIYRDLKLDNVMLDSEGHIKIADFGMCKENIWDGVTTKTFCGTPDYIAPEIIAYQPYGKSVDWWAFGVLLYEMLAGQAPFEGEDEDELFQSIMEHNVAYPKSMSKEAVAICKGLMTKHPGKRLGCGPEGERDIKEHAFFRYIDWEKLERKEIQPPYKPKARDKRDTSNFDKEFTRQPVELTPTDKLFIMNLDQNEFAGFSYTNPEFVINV

[8] = Melanoma B16-FO cell line MDS Pharma Services Proliferation Assay; type: functional, cell-based
[9] = molecular target: Tyrosine-protein kinase ABL1 (Mus musculus) (UniProt P00520); assay: Abl (m) Upstate kinase activity assay; details: Compound concentration 10.0 uM
Tyrosine-protein kinase ABL1 (Mus musculus), sequence (P00520 whole entry): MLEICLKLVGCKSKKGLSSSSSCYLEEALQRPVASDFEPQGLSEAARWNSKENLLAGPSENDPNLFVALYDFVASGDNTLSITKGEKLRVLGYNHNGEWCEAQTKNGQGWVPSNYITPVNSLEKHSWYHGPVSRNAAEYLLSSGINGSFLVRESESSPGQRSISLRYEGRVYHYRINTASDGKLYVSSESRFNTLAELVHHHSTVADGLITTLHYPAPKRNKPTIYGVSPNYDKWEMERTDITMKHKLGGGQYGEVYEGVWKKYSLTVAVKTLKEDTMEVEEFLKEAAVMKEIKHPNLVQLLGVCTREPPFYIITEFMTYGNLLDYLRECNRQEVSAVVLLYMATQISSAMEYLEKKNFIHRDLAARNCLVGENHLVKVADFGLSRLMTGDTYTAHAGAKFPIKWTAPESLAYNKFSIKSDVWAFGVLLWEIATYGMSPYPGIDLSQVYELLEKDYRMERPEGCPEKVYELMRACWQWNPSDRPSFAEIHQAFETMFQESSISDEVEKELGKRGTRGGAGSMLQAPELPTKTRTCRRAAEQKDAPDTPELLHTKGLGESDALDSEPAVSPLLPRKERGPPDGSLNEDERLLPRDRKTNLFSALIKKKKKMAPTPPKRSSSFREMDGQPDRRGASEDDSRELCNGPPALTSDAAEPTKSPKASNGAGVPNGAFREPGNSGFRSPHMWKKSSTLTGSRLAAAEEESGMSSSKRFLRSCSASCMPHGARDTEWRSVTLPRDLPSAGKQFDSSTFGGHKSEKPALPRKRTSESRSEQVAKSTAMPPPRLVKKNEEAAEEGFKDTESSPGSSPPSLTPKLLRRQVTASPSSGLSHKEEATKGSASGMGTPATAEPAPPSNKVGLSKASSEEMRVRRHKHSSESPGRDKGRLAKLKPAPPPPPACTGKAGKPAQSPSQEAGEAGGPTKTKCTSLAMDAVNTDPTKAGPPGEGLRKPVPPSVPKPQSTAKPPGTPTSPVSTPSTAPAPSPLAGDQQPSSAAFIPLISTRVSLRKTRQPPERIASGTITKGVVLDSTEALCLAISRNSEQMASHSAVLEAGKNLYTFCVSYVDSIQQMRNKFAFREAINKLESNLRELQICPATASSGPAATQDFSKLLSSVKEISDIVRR

[10] = molecular target: Platelet-derived growth factor receptor alpha (Homo sapiens) (UniProt P16234); assay: PDGFRalpha (h) Upstate kinase activity assay; details: Compound concentration 10.0 uM
[11] = molecular target: T2, Serine/threonine-protein kinase Nek2 (Homo sapiens) (UniProt P51955); assay: NEK2 (h) Upstate kinase activity assay; details: Compound concentration 10.0 uM
T2 sequence (whole entry): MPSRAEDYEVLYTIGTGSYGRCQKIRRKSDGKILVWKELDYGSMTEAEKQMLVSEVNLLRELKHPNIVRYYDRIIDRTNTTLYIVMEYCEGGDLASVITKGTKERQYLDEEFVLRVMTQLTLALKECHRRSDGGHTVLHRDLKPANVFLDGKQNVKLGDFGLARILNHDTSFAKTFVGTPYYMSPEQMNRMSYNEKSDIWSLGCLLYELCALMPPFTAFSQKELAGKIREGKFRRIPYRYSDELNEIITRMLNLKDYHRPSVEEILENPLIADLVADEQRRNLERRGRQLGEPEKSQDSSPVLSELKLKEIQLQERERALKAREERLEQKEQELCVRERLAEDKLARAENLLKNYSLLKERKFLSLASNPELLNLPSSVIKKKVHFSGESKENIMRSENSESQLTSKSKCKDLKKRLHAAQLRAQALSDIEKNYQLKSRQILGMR

[12] = molecular target: High affinity nerve growth factor receptor (Homo sapiens) (UniProt P04629); details: Compound concentration 10.0 uM
[13] = test system: U-937; assay: Lymphoma U937 cell line MDS Pharma Services Proliferation Assay; type: functional, cell-based, Homo sapiens
[14] = molecular target: Proto-oncogene tyrosine-protein kinase ROS (Homo sapiens) (UniProt P08922); assay: Ros (h) Upstate kinase activity assay; details: Compound concentration 10.0 uM
[15] = molecular target: T3, Mitogen-activated protein kinase 13 (Homo sapiens) (UniProt O15264); assay: SAPK4 (h) Upstate kinase activity assay; details: Compound concentration 10.0 uM
T3 sequence (whole entry): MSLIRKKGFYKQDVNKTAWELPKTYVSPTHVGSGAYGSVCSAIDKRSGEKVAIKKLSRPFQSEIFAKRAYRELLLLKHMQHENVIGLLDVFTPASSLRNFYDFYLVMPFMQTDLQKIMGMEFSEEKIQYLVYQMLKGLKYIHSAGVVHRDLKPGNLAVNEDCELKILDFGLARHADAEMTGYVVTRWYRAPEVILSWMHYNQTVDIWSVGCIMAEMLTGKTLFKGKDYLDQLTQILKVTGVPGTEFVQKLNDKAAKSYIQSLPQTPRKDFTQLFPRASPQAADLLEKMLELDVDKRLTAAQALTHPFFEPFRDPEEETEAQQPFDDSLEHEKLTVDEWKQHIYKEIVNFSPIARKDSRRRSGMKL

[16] = test system: MCF7; assay: Breast MCF-7 cell line MDS Pharma Services Proliferation Assay; type: functional, cell-based, Homo sapiens
[17] = molecular target: RAC-alpha serine/threonine-protein kinase (Homo sapiens) (UniProt P31749); assay: PKBalpha (h) Upstate kinase activity assay; details: Compound concentration 10.0 uM
[18] = test system: Epidermal growth factor receptor (Homo sapiens), P00533 [G719C]; details: Compound concentration 100.0 nM
[19] = test system: Epidermal growth factor receptor (Homo sapiens), P00533 [G719S]; details: Compound concentration 100.0 nM

Receptor tyrosine-protein kinase erbB-4 (Homo sapiens), sequence (Q15303 whole entry): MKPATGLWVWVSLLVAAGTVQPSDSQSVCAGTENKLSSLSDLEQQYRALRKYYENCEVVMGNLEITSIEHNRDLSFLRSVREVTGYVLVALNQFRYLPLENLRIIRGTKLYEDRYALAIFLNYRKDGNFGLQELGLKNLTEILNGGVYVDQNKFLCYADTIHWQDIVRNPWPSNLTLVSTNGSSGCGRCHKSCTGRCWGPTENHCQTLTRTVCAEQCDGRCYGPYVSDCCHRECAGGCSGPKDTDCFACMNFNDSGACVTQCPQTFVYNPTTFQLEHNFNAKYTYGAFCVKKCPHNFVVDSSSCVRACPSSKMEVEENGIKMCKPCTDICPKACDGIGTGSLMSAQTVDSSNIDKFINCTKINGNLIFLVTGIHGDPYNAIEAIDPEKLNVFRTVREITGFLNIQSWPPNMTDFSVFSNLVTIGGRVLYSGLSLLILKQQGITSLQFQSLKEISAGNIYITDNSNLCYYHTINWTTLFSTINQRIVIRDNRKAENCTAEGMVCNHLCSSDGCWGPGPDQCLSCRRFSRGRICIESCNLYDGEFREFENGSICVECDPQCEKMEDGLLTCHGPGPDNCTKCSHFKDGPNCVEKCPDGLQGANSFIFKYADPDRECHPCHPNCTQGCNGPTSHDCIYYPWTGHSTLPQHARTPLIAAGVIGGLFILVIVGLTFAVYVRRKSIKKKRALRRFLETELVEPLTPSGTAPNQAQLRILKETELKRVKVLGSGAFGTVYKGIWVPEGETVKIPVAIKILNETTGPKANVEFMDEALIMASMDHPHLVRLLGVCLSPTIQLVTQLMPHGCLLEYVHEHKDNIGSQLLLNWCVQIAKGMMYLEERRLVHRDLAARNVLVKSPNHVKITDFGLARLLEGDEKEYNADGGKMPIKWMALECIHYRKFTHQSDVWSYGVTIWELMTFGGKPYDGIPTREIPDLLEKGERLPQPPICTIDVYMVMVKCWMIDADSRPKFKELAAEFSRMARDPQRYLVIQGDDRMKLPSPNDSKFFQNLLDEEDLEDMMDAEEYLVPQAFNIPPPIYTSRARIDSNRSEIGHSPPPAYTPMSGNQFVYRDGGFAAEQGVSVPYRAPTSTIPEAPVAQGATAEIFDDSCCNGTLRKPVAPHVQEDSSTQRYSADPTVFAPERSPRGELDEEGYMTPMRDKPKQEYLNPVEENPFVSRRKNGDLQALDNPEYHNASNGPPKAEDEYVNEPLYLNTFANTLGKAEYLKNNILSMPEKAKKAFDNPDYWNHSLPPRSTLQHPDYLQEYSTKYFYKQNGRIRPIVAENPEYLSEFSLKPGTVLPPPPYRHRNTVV

Cc1c[nH]c2nccc(Oc3c(F)cc(Nc4cc(Cl)nc(N)n4)cc3F)c12 [BAY-549]
inhibition [1]: 5%
Mean % growth (n = 2) for 0.01 µM probe concentration [2]: 101%
IC50 ([2]; Homo sapiens, DLD-1): 2400 nM
TGI ([2]; Homo sapiens, DLD-1): > 100 µM
CC50 ([2]; Homo sapiens, DLD-1, read-out: LC50 (the source's name)): > 100 µM
Mean % growth (n = 2) for 10.0 µM probe concentration ([2]; ± SEM 1 % growth): 24%
Mean % growth (n = 2) for 100.0 µM probe concentration ([2]; ± SEM 1 % growth): 5%
Mean % growth (n = 2) for 0.1 µM probe concentration ([2]; ± SEM 2 % growth): 94%
Mean % growth (n = 2) for 1.0 µM probe concentration ([2]; ± SEM 4 % growth): 66%
inhibition [3]: 21%
inhibition [4]: 41%
inhibition [5]: 6%
IC50 ([6]; Homo sapiens, PC-6): 4.2 µM
TGI ([6]; Homo sapiens, PC-6): 18 µM
CC50 ([6]; Homo sapiens, PC-6, read-out: LC50 (the source's name)): 76 µM
Mean % growth (n = 2) for 0.1 µM probe concentration ([6]; ± SEM 5 % growth): 84%
Mean % growth (n = 2) for 100.0 µM probe concentration ([6]; ± SEM 6 % growth): -65%
Mean % growth (n = 2) for 10.0 µM probe concentration ([6]; ± SEM 7 % growth): 32%
Mean % growth (n = 2) for 0.01 µM probe concentration ([6]; ± SEM 9 % growth): 105%
Mean % growth (n = 2) for 1.0 µM probe concentration ([6]; ± SEM 9 % growth): 70%
inhibition [7]: 9%
CC50 ([8]; Mus musculus, B16-F10, read-out: LC50 (the source's name)): > 100 µM
Mean % growth (n = 2) for 1.0 µM probe concentration ([8]; ± SEM 1 % growth): 106%
Mean % growth (n = 2) for 0.1 µM probe concentration ([8]; ± SEM 4 % growth): 94%
Mean % growth (n = 2) for 0.01 µM probe concentration ([8]; ± SEM 5 % growth): 98%
Mean % growth (n = 2) for 100.0 µM probe concentration ([8]; ± SEM 5 % growth): -46%
Mean % growth (n = 2) for 10.0 µM probe concentration ([8]; ± SEM 9 % growth): 53%
inhibition [9]: 33%
inhibition [10]: 3%
inhibition [11]: 19%
inhibition [12]: 99%
IC50 ([13]; Homo sapiens, U-937): 14 µM
TGI ([13]; Homo sapiens, U-937): > 100 µM
CC50 ([13]; Homo sapiens, U-937, read-out: LC50 (the source's name)): > 100 µM
Mean % growth (n = 2) for 0.01 µM probe concentration ([13]; ± SEM 1 % growth): 101%
Mean % growth (n = 2) for 0.1 µM probe concentration ([13]; ± SEM 2 % growth): 103%
Mean % growth (n = 2) for 1.0 µM probe concentration ([13]; ± SEM 2 % growth): 104%
Mean % growth (n = 2) for 100.0 µM probe concentration ([13]; ± SEM 5 % growth): 17%
Mean % growth (n = 2) for 10.0 µM probe concentration ([13]; ± SEM 7 % growth): 56%
inhibition [14]: 10%
inhibition [15]: 16%
TGI ([16]; Homo sapiens, MCF7): > 100 µM
CC50 ([16]; Homo sapiens, MCF7, read-out: LC50 (the source's name)): > 100 µM
Mean % growth (n = 2) for 1.0 µM probe concentration ([16]; ± SEM 1 % growth): 87%
Mean % growth (n = 2) for 10.0 µM probe concentration ([16]; ± SEM 2 % growth): 57%
Mean % growth (n = 2) for 0.01 µM probe concentration ([16]; ± SEM 3 % growth): 92%
Mean % growth (n = 2) for 100.0 µM probe concentration ([16]; ± SEM 4 % growth): 6%
Mean % growth (n = 2) for 0.1 µM probe concentration ([16]; ± SEM 9 % growth): 89%
inhibition [17]: 84%

Cn1cc(Cl)c2c(Oc3c(F)cc(Nc4cc(Cl)nc(N)n4)cc3F)ccnc21 [BAY-4900]
residual activity [18]: 95%
residual activity [19]: 98%
